Assay results published in patent US20240342186A1, “PYRIDINE DERIVATIVES WITH N-LINKED CYCLIC SUBSTITUENTS AS cGAS INHIBITORS” (Boehringer Ingelheim International GmbH, priority 2021, published 2024).
Read-outs that look alike come from different tables or passages of the source.

Legend:
[1] = system: cellular cGAS activity in baculovirus-stimulated THP1-Dual cells (IRF dependent Lucia luciferase reporter); test: Human cGAS cell assay: inhibition of IFN induction in virus-stimulated THP1 cells (THP1(vir) IC50); assay type: cell-based; details: Homo sapiens, THP1-Dual
Excerpt: (§1) 6.2 Method: Human cGAS Cell Assay and cGAMP Stimulated Counter Cell Assay (THP1(vir) IC50 and THP1(cGAMP) IC50)
(§2) THP1-Dual™ cells (InvivoGen #thpd-nfis) expressing IRF dependent Lucia luciferase reporter were used as basis for both assays. For the detection of cellular cGAS activity cells were stimulated by a baculovirus (pFastbac-1, Invitrogen, no coding insert) infection that delivers the cGAS enzyme stimulating double-stranded DNA (measurement of THP1(vir) IC50).
(§3) For the counter assay, cells were stimulated by cGAMP (SigmaAldrich #SML1232) to activate the identical pathway independent and directly downstream of cGAS (measurement of THP1(cGAMP) IC50). Pathway activity was monitored by measuring the Lucia luciferase activity induced by either DNA stimulated cGAS enzyme activity (measurement of THP1(vir) IC50) or by cGAMP directly (measurement of THP1(cGAMP) IC50, counter assay).
(§4) Compounds were delivered in 10 mM DMSO solution, serially diluted and transferred to the 384 well assay plate (Greiner #781201) using an Echo acoustic dispenser. Typically, 8 concentrations were used with the highest concentration at 10 μM in the final assay volume followed by ˜1:5 dilution steps. DMSO concentration was set to 1% in the final assay volume. The 384 well assay plate contained 21 test compounds (column 1-22), and DMSO in column 23 and 24.
(§5) Cells, cultivated according to manufacturer conditions, were harvested by centrifugation at 300 g/10 min and were then resuspended and diluted to 1.66E5 cells/ml in fresh cell culture medium (RPMI 1640 (Gibco #A10491-01), 10% FCS (Gibco #10500), 1× GlutaMax (Gibco #35050-061), 1× Pen/Strep solution (Gibco #15140-122), 100 μg/ml Normocin (InvivoGen #ant-nr), 100 μg/ml Zeocin (InvivoGen #ant-zn), 10 μg/ml Blasticidin S (Life Technologies #A11139-03)). The baculovirus solution was then added 1:200 (have varied according to virus batch) to the cells (measurement of THP1(vir) IC50).
(§6) 30 μL of the cell/virus-mix were added to each well of the compound plate from column 1-23 via MultiDrop Combi dispenser (5000 cells/well). In column 24, 30 μl/5000 cells/well without virus were added as a low control.
(§7) The plates were then incubated for 18 h at 37° C. in a humidified incubator.
(§8) Following that, 15 μl of QuantiLuc detection reagent (InvivoGen #rep-qlcg5) were added to each well using a MultiDrop Combi. Measurement was done immediately after the addition using an EnVision reader (US-luminescence read-mode).
(§9) For data evaluation and calculation, the measurement of the low control was set as 0% control and the measurement of the high control was set as 100% control. The IC50 values were calculated using the standard 4 parameter logistic regression formula. Calculation: [y=(a−d)/(1+(x/c)^b)+d], a=low value, d=high value; x=conc M; c=IC50 M; b=slope

[2] = system: cGAMP-stimulated THP1-Dual cells (pathway directly downstream of cGAS); test: cGAMP stimulated counter cell assay: inhibition of IFN induction in cGAMP-stimulated THP1 cells (THP1(cGAMP) IC50); assay type: cell-based, human; details: for IC50: Homo sapiens, THP1-Dual; for Ratio THP1(cGAMP) IC50 / THP1(vir) IC50: selectivity for cGAS inhibition
Excerpt: as §1, §2, §3, §4, §5, §6, §7, §8, §9

cGAS = cGAS (Homo sapiens (Human), UniProt Q8N884); test: Human cGAS enzyme assay (hcGAS IC50, in vitro), cGAMP formation by RapidFire MS; assay type: biochemical; details: biochemical (in vitro) cGAS inhibition;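 further: enzyme activated by 45 bp dsDNA with GTP and ATP (30 µM each), 60 min compound pre-incubation then 90 min reaction, cGAMP relative to cyclic-di-GMP internal standard, 8-point dilutions up to 10 µM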
Chain of cGAS (Q8N884 whole entry): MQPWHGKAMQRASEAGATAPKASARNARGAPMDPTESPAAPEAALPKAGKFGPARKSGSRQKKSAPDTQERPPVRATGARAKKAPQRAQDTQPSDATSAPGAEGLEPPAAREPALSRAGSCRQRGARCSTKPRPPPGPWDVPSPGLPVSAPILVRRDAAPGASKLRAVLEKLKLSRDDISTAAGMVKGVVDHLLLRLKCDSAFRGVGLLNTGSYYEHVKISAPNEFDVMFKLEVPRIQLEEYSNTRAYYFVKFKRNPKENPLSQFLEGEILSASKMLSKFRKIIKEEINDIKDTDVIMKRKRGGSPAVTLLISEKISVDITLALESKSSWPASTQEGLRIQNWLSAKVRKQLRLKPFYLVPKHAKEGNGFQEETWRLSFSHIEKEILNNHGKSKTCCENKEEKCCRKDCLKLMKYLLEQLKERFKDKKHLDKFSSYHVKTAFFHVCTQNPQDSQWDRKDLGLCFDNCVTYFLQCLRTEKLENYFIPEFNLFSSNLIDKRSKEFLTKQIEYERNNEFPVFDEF

[3] = system: cellular cGAS activity in dsDNA-stimulated human whole blood; test: Human whole blood assay (hWB IC50): IFNα2α production after dsDNA transfection; assay type: cell-based; details: inhibition of IFN induction in dsDNA-stimulated human whole blood
Description: 6.3 Method: Human Whole Blood Assay (Human WB IC50)
For the detection of cellular cGAS activity human whole blood was stimulated by transfection with double stranded DNA. Pathway activity was monitored by measuring the IFNα2α production.
Compounds were delivered as 10 mM DMSO solution and serially diluted and transferred to the 96-well cell culture plate (Corning #3595), prefilled with 20 μl OptiMEM (Gibco, #11058-021) in each well, using an Echo acoustic dispenser. Typically, 8 concentrations were used with the highest concentration at 10 µM in the final assay volume followed by ˜1:5 dilution steps. DMSO concentration was set to 0.1% in the final assay volume. The 96-well assay plate contained 10 test compounds, and DMSO in control wells.
Collection of human whole blood from 3 or more healthy donors (male or female, no medication for 7 days except contraceptive and thyroxine) as Na-Citrate blood (e.g. 3.8% in Monovettes from Sarstedt) was conducted in parallel. Whole blood was kept at room temperature for a maximum of 3 hours after collection until use in the assay.
160 μl of the whole blood samples was transferred to each well of the 96-well assay plates filled with compound/OptiMEM. All assay plates were prepared as duplicates with blood from different donors. Blood plates were kept at room temperature for 60 minutes and continuous shaking with 450 rpm, covered with the lid, but not sealed.
20 μl OptiMEM and 9.6:1 Fugene was added to all low control wells.
After covering assay plates with aera seals and the lid, blood plates were kept at room temperature for 30 minutes and continuous shaking with 450 rpm, followed by an overnight incubation of 22 h at 37° C. in the incubator, without shaking.
For the detection of IFNα-2α in human plasma, the biotinylated capture antibody (Antibody set IFNA2, Meso Scale Diagnostics #B21VH-3, including coating and capture antibody) was diluted 1:17.5 in Diluent 100 (Meso Scale Diagnostics #R^50AA-4), according to the manufacturer's directions. U-Plex MSD GOLD 96-well Small Spot Strepavidin SECTOR Plates (Meso Scale Diagnostics #L45SA-5) were coated with 25 μl diluted capture antibody. Coated plates were incubated for 60 min at room temperature under continuous shaking at 700 rpm. MSD IFNα-2α plates were washed three times with 150 μl wash buffer (1x HBSS, 0.05% Tween).
After blocking the plates with 100 μl block solution/well (1x HBSS with 0.2% Tween, 2% BSA) for 60 min at room temperature and continuous shaking at 700 rpm, plates were emptied as dry as possible by dumping just before continuing with the human plasma.
Whole Blood assay plates were centrifuged at 1600 rpm for 10 minutes. 25 μl of supernatant was transferred with a pipetting robot from each whole blood plate to the corresponding IFNα-2α plate. Plates were sealed with microplate seals and kept at room temperature again under continuous shaking at 700 rpm for two hours.
Next MSD IFNα-2α plates were washed three times with 150 μl wash buffer (1×HBSS, 0.05% Tween), before adding 25 μl MSD SULFO-TAG IFNα-2α Antibody solution (1:100 diluted in Diluent 3 (Meso Scale Diagnostics #R50AP-2) to each well of the plates.
Afterwards plates were sealed with microplate seals and kept at room temperature again under continuous shaking at 700 rpm for two hours. Finally, MSD IFNα-2α plates were washed three times with 150 μl wash buffer (1×HBSS, 0.05% Tween). 150 μl 2× Read buffer was added to each well and plates were immediately measured with the MSD Sector S600 Reader using the vendor barcode.
For data evaluation and calculation, % control calculation of each well was based on the mean of high (DNA stimulated control) and mean of low (unstimulated control) controls by using the following formula:
[counts(sample)−counts(low))/(counts(high)−counts(low))]*100
The IC50 values were calculated using the standard 4 parameter logistic regression formula. Calculation: [y=(a−d)/(1+(x/c)^b)+d], a=low value, d=high value; x=conc M; c=IC50 M; b=slope

[4] = inhibition of IFN induction in virus-stimulated THP1 cells, read-out: THP1(vir) IC50
[5] = inhibition of IFN induction in cGAMP-stimulated THP1 cells, read-out: THP1(cGAMP) IC50 (converted)
[6] = read-out: THP1(vir) IC50, inhibition of IFN induction in virus-stimulated THP1 cells
[7] = cGAMP-stimulated THP1 cells, counter assay, read-out: THP1(cGAMP) IC50 (converted)
[8] = read-out: THP1(vir) IC50, virus-stimulated THP1 cells, IFN induction

SMILES	IC50 [1, 4] [nM]	IC50 (cGAS) [nM]	IC50 [3] [nM]	IC50 [2, 5] [nM]	Ratio THP1(cGAMP) IC50 / THP1(vir) IC50 [2]	IC50 [1, 6] [nM]	IC50 ([2]; read-out: THP1(cGAMP) IC50) [nM]	IC50 [2, 7] [nM]	IC50 [1, 8] [nM]
C[C@@H]1OCCN(c2cc(Cl)cnc2O[C@H]2C[C@@H](C(=O)O)N(c3nc(C(F)(F)F)nc4c3oc3ccccc34)C2)[C@H]1C [Example 1.06]	951	65		14300	15				
O=C(O)[C@@H]1C[C@H](Oc2ncc(Cl)cc2N2CCc3nocc3C2)CN1c1nc(C(F)(F)F)nc2c1oc1ccccc12 [Example 1.07]	781	5		18700	24				
C#Cc1cnc(O[C@H]2C[C@@H](C(=O)O)N(c3nc(C(F)F)nc4c3oc3ccccc34)C2)c(N2CCOC3(COC3)C2)c1 [Example 1.25]			551		>32	517	> 16600		
C#Cc1cnc(O[C@H]2C[C@@H](C(=O)O)N(c3nc(Cl)nc4c3oc3ccccc34)C2)c(N2CCOC[C@@H]2C)c1 [Example 1.32]	487	4							
C#Cc1cnc(O[C@H]2C[C@@H](C(=O)O)N(c3nc(C)nc4c3oc3ccccc34)C2)c(N2CCOC3(COC3)[C@@H]2C)c1 [Example 2.03]	< 5		9	16400					
C[C@@H]1N(c2cc(-c3cccnc3C#N)cnc2O[C@H]2C[C@@H](C(=O)O)N(c3nc(C(F)(F)F)nc4c3oc3ccccc34)C2)CCOC12COC2 [Example 3.28]	712	14		16400	23				
C[C@@H]1N(c2cc(-c3ccnc(N(C)C)c3)cnc2O[C@H]2C[C@@H](C(=O)O)N(c3nc(C(F)F)nc4c3oc3ccccc34)C2)CCOC12COC2 [Example 4.01, (2S,4S)-1-[4-(Difluoromethyl)-8-oxa-3,5-diazatricyclo[7.4.0.0^2,7]trideca-1(9),2(7),3,5,10,12-hexaen-6-yl]-4-({N,N-dimethyl-5-[(9S)-9-methyl-2,5-dioxa-8-azaspiro[3.5]nonan-8-yl]-[3,4′-bipyridin]-2′-yl}oxy)pyrrolidine-2-carboxylic acid]			5			< 5	6680		
Cc1nc(N2CCC[C@H]2C(=O)O)c2oc3ccccc3c2n1 [Example 15, reference compound]								> 17000	
Cc1nc(N2C[C@@H](CC(=O)Nc3ccncc3)C[C@H]2C(=O)O)c2oc3ccccc3c2n1 [Example 28, reference compound]									> 32000
Cc1nc(N2C[C@@H](Nc3ccncc3)C[C@H]2C(=O)O)c2oc3ccccc3c2n1 [Example 38, reference compound]								> 17000	
CC(C)(C(=O)N[C@H]1C[C@@H](C(=O)O)N(c2nc(C(F)(F)F)nc3c2oc2ccccc23)C1)c1cn[nH]c1 [Example 58, reference compound]									21000

The next lines start with results.

IC50 [1, 4] [nM]	IC50 (cGAS) [nM]	IC50 [3] [nM]	SMILES	IC50 [2, 5] [nM]	Ratio THP1(cGAMP) IC50 / THP1(vir) IC50 [2]	IC50 [1, 6] [nM]	IC50 ([2]; read-out: THP1(cGAMP) IC50) [nM]	IC50 [2, 7] [nM]	IC50 [1, 8] [nM]
829	8		N#CC1CN(c2cc(Cl)cnc2O[C@H]2C[C@@H](C(=O)O)N(c3nc(C(F)(F)F)nc4c3oc3ccccc34)C2)CCO1 (stereo partly drawn) [Example 1.01, (2S,4S)-4-{[5-Chloro-3-(2-cyanomorpholin-4-yl)pyridin-2-yl]oxy}-1-[4-(trifluoromethyl)-8-oxa-3,5-diazatricyclo[7.4.0.0^2,7]trideca-1(13),2,4,6,9,11-hexaen-6-yl]pyrrolidine-2-carboxylic acid]	24600	30				
697	4	3440	CC1(C#N)CN(c2cc(Cl)cnc2O[C@H]2C[C@@H](C(=O)O)N(c3nc(C(F)F)nc4c3oc3ccccc34)C2)CCO1 (stereo partly drawn) [Example 1.02]	21900	31				
399	7	8450	CC1(C#N)CN(c2cc(Cl)cnc2O[C@H]2C[C@@H](C(=O)O)N(c3nc(C(F)(F)F)nc4c3oc3ccccc34)C2)CCO1 (stereo partly drawn) [Example 1.03]	15100	38				
327		3700	CC1(C#N)CCCN(c2cc(Cl)cnc2O[C@H]2C[C@@H](C(=O)O)N(c3nc(C(F)F)nc4c3oc3ccccc34)C2)C1 (stereo partly drawn) [Example 1.04]	10000	31				
831	4		O=C(O)[C@@H]1C[C@H](Oc2ncc(Cl)cc2N2CCc3nocc3C2)CN1c1nc(C(F)F)nc2c1oc1ccccc12 [Example 1.08]	18700	23				
6		5	C#Cc1cnc(O[C@H]2C[C@@H](C(=O)O)N(c3nc(C(F)F)nc4c3oc3ccccc34)C2)c(N2CCOC3(COC3)[C@@H]2C)c1 [Example 1.11]	18500					
848		850	O=C(O)[C@@H]1C[C@H](Oc2ncc(Br)cc2N2CCOC3(COC3)C2)CN1c1nc(C(F)F)nc2c1oc1ccccc12 [Example 1.24]	> 16600	>20				
